Reference: patent US9688695B2, “Imidazothiadiazole and imidazopyrazine derivatives as protease activated receptor 4 (PAR4) inhibitors for treating platelet aggregation” (BRISTOL-MYERS SQUIBB COMPANY, priority 2012, dated 2017)

What was measured:
[1] = tested on: carotid artery thrombosis; experiment: cynomolgus monkey electrolytic injury-induced carotid artery thrombosis model; assay type: in vivo
[2] = tested on: carotid artery thrombosis; experiment: Cynomolgus monkey electrolytic injury-induced carotid artery thrombosis model; assay type: in vivo; conditions: oral, electrically-induced arterial thrombus model
Text: The efficacy of the PAR4 antagonists of the present invention in preventing thrombosis can also be measured in a variety of in vivo assays. Exemplary mammals that can provide models of thrombosis and hemostasis to test the effectiveness of the PAR4 antagonists of the present invention as antithrombotic agents include, but are not limited to, guinea pigs and primates. Relevant efficacy models include, but are not limited to, electrolytic injury-induced carotid artery thrombosis, FeCl3-induced carotid artery thrombosis and arteriovenous-shunt thrombosis. […]
On the day of the study, compounds or vehicles were administered orally at 1 to 2 hours before the experiment. […] Blood pressure and heart rate were monitored to maintain normal vital signs.
Carotid blood flow was measured with an appropriately sized TRANSONIC® flow probe and a TRANSONIC® perivascular flowmeter (TS420 Model, Transonic Systems Inc., Ithaca, N.Y.). It was continuously recorded over a 90-min period to monitor thrombosis-induced occlusion. Integrated carotid blood flow was measured by the area under the flow-time curve. It was expressed as percent of total control carotid blood flow, which would result if control blood flow had been maintained continuously for 90 min. […]

`COc1cc(OCc2csc(-c3ccccc3)n2)c2cc(-c3cn4nc(OC)sc4n3)oc2c1` [Example 3, 2-Methoxy-6-(6-methoxy-4-((2-phenylthiazol-4-yl)methoxy)benzofuran-2-yl)imidazo[2,1-b][1,3,4]thiadiazole] was tested, and the “antithrombotic efficacy (FIG. 1C)” value [1] was “antithrombotic efficacy” and the “antithrombotic efficacy (dose response, FIG. 1C)” value [2] was “demonstrating the in vivo antithrombotic efficacy”.
